Assay results reported in patent US11413278B2, “Compounds and methods for promoting stress resistance” (priority 2015, dated 2022).
Where two headings read alike, the source gives them in different places.

Experiments:
WI-38 cells [1] = test: Propidium iodide (PI) cell-death imaging upon H2O2 stress; assay type: cell-based, human; conditions: for Assay 7: H2O2-resistant, at 10 uM, validated by propidium iodide (PI) cell-death imaging: w/H2O2, 3 hrs/4 hrs/5 hrs, YES/NO; for cytotoxicity at 10 µM: Homo sapiens, WI-38
WI-38 cells [2] = test: CdCl2 (cadmium) resistance assay; assay type: cell-based, human; conditions: for fold induction at 10 µM: Homo sapiens, 12 h, normalized ATP measurement; for Assay 4: H2O2- & Cd-resistant / Assay 2: Cadmium-resistant: YES/NO; for Assay 2: Cadmium-resistant: * indicates partial
Summary of the method: (§1)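 WI-38 cells were given compounds at five final concentrations (0.25–20 μM) in triplicate, followed by cadmium or MMS for 12 h. For MMS, medium was switched from OptiMEM+10% FBS to serum-free DMEM+2% BSA when compounds were added, 24 h before stressor. Two independent assays were run, analysed by global variance t-test.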

WI-38 cells [3] = test: MMS resistance assay; assay type: cell-based, human; conditions: for fold induction at 10 µM: Homo sapiens, 12 h, normalized ATP measurement
Summary of the method: as §1

[4] = test system: human dermal fibroblast (HDF) primary cells; test: H2O2-resistance in primary human dermal fibroblasts; assay type: cell-based; conditions: for fold induction at 10 µM: Homo sapiens; for Assay 6: H2O2-resistant, at 10 uM, human dermal fibroblast (HDF) primary cells: YES/NO
C. elegans = assay type: in vivo, Caenorhabditis elegans; conditions: in vivo
Summary of the method: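 Worms treated in liquid with compounds in 96-well plates (4 wells each, FUdR to block progeny, 0.2% DMSO controls); H2O2 at 500 μM final added on day 4 of adulthood and viability scored daily.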

WI-38 cells [5] = test: Long-term effects on cell viability (5 days, ATP; morphology, PI imaging); assay type: cell-based; conditions: 10 μM; for Luminescence signal for ATP measurement, day-1 Average / Luminescence signal for ATP measurement, day-2 Average / Luminescence signal for ATP measurement, day-3 Average / Luminescence signal for ATP measurement, day-4 Average / Luminescence signal for ATP measurement, day-5 Average / viability at 10 µM: Batch 1; for Luminescence signal for ATP measurement, day-1 Average / Luminescence signal for ATP measurement, day-2 Average / Luminescence signal for ATP measurement, day-3 Average / Luminescence signal for ATP measurement, day-4 Average / Luminescence signal for ATP measurement, day-5 Average: n = 6, day-0 luminescence = 320956 ± 24708; for viability at 10 µM: Homo sapiens, WI-38, 120 h, DMSO ctrl = 100.0%, read-out: ATP luminescence by day-5 normalized; for Luminescence signal for ATP measurement, day-5 Average / viability at 10 µM: day-5; for O = Potential toxicity / Q = Potential toxicity: human, 5 days;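 on Luminescence signal for ATP measurement, day-2 Average: compounds at 10 µM with ATP read daily over 5 days of treatment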;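 on Luminescence signal for ATP measurement, day-3 Average: compounds at 10 µM with ATP read daily over 5 days of treatment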;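 on Luminescence signal for ATP measurement, day-4 Average: compounds at 10 µM with ATP read daily over 5 days of treatment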;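 on Luminescence signal for ATP measurement, day-5 Average: compounds at 10 µM with ATP read daily over 5 days of treatment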
[6] = Summary score for characterization of 38 core set hits; conditions: for D = Triple resistant: 2-point score, multiplex resistance (cadmium, MMS, H2O2); for S = Sum of Negative scores: human; for C = H2O2- & Cd-resistant: score, resistance to both H2O2 and cadmium
Summary of the method: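 Composite score. 2 pts each: multiplex stress resistance, FOXO3/NRF2 activation, mTOR down-regulation. Worm lifespan (4–6 independent trials): 0 = no obvious effect, 1 = extension in 2 trials, 2 = extension in >2 trials. −1 for DNA damage and/or cytotoxicity in cultured human cells.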

[7] = H2O2 3 hrs, 10 uM, n = 6, negative control 5.44% ± 0.79%, read-out: Percentage of propidium iodide-positive dead cells (under H2O2 stress treatment), 3 hrs
[8] = H2O2 4 hrs, 10 uM, n = 6, negative control 16.81% ± 1.42%, read-out: Percentage of propidium iodide-positive dead cells (under H2O2 stress treatment), 4 hrs
[9] = H2O2 5 hrs, 10 uM, n = 6, negative control 22.50% ± 1.53%, read-out: Percentage of propidium iodide-positive dead cells (under H2O2 stress treatment), 5 hrs
[10] = pre-treatment at 10 uM, 3.5 hours of H2O2, DMSO control 27.4% ± 6.5%, */**/*** = reduced by one/two/three standard deviations, read-out: Percentage of propidium iodide-positive dead cells (under H2O2 stress treatment), at 10 uM
[11] = Exp. 1, WI-38 cells, read-out: Exp. 1, under Cd2Cl2 stress treatment, at 10 uM (fold change)
[12] = Exp. 2, WI-38 cells, read-out: Exp. 2, under Cd2Cl2 stress treatment, at 10 uM (fold change)
[13] = score in summary of 38 core set hits
[14] = Exp. 1, WI-38 cells, read-out: Exp. 1, under MMS stress treatment, at 10 uM (fold change)
[15] = Exp. 2, WI-38 cells, read-out: Exp. 2, under MMS stress treatment, at 10 uM (fold change)
[16] = Experiment 1, HDF cells, read-out: Experiment 1, HDF cells (under H2O2 stress treatment), at 10 uM (fold change)
[17] = Experiment 2, HDF cells, read-out: Experiment 2, HDF cells (under H2O2 stress treatment), at 10 uM (fold change)

Row | SMILES | Assay 7: H2O2-resistant, at 10 uM, validated by propidium iodide (PI) cell-death imaging (WI-38 cells [1]; 10 uM) | cytotoxicity at 10 µM (WI-38 cells [1]; [7]) | cytotoxicity at 10 µM (WI-38 cells [1]; [8]) | cytotoxicity at 10 µM (WI-38 cells [1]; [9]) | cytotoxicity at 10 µM (WI-38 cells [1]; [10]) | fold induction at 10 µM (WI-38 cells [2]; [11]) | fold induction at 10 µM (WI-38 cells [2]; [12]) | Assay 4: H2O2- & Cd-resistant (WI-38 cells [2]) | Assay 2: Cadmium-resistant (WI-38 cells [2]) | A = Cadmium resistant (WI-38 cells [2]; [13]) | A = Cadmium resistant (WI-38 cells [2]; summary score) | C = H2O2- & Cd-resistant (WI-38 cells [2]; summary score) | fold induction at 10 µM (WI-38 cells [3]; [14]) | fold induction at 10 µM (WI-38 cells [3]; [15]) | B = MMS resistant (WI-38 cells [3]; [13]) | B = MMS resistant (WI-38 cells [3]; summary score) | D = Triple resistant (WI-38 cells [3]; summary score) | fold induction at 10 µM [4, 16] | fold induction at 10 µM [4, 17] | Assay 6: H2O2-resistant, at 10 uM, human dermal fibroblast (HDF) primary cells [4] | also measured
1 | O=C(NCc1cccnc1)/C(=C\c1cccc(Oc2ccccc2)c1)S(=O)(=O)c1ccccc1 [Gr-7A] | YES | 2.78% | 2.32% | 3.52% | 9.9% | 0.07 | 0.14 | YES | YES | 0 | 1 | 1 | 0.96 | 2.21 | 0 | 0 | 0 | 1.2 | 4.11 | YES | H2O2-resistance assay, 1st experiment (C. elegans): YES;; L = H2O2-resistance in worms (C. elegans): 1; N = H2O2-resistance in woms (C. elegans): 1; Protection of C. elegans from hydrogen peroxide (C. elegans): could protect C. elegans from hydrogen peroxide; Luminescence signal for ATP measurement, day-1 Average (WI-38 cells [5]): 463265; Luminescence signal for ATP measurement, day-2 Average (WI-38 cells [5]): 192116; Luminescence signal for ATP measurement, day-3 Average (WI-38 cells [5]): 67526; Luminescence signal for ATP measurement, day-4 Average (WI-38 cells [5]): 48480; Luminescence signal for ATP measurement, day-5 Average (WI-38 cells [5]): 44670; viability at 10 µM (WI-38 cells [5]): 4.4%; O = Potential toxicity (WI-38 cells [5]): 0; Q = Potential toxicity (WI-38 cells [5]): 1; D = Triple resistant [6]: 0; S = Sum of Negative scores [6]: 1; C = H2O2- & Cd-resistant [6]: 0
2 | O=C(c1ccc([N+](=O)[O-])o1)N1CCc2ccccc21 [O13] | YES | 1.13% | 2.56% | 7.03% | 4.8% | 1.27 | 1.55 | YES | YES | 0 | 1 | 1 | 1.11 | 2.24 | 0 | 1 | 2 | 11.2 | 60.5 | YES | Assay 3: MMS-resistant (WI-38 cells [3]; YES/NO, * indicates partial): YES; Assay 5: Triple resistant (WI-38 cells [3]; YES/NO, H2O2, cadmium and MMS): YES; H2O2-resistance assay, 1st experiment (C. elegans): YES;; L = H2O2-resistance in worms (C. elegans): 0; N = H2O2-resistance in woms (C. elegans): 0; Luminescence signal for ATP measurement, day-1 Average (WI-38 cells [5]): 546070; Luminescence signal for ATP measurement, day-2 Average (WI-38 cells [5]): 704210; Luminescence signal for ATP measurement, day-3 Average (WI-38 cells [5]): 806718; Luminescence signal for ATP measurement, day-4 Average (WI-38 cells [5]): 947030; Luminescence signal for ATP measurement, day-5 Average (WI-38 cells [5]): 992715; viability at 10 µM (WI-38 cells [5]): 96.7%; O = Potential toxicity (WI-38 cells [5]): 0; Q = Potential toxicity (WI-38 cells [5]): 0; D = Triple resistant [6]: 0; S = Sum of Negative scores [6]: 0; C = H2O2- & Cd-resistant [6]: 0
